Measured values taken from patent US20240051936A1, “ISOINDOLINONE COMPOUNDS” (Monte Rosa Therapeutics, Inc., priority 2021, published 2024).
Read-outs that look alike come from different tables or passages of the source.

Assays:
[1] = biological target: GSPT1 (Homo sapiens (Human), UniProt P15170+Q96SW2); experiment: Immunofluorescence assay for GSPT1 degradation in CAL-Si cells; format: cell-based
In short: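 CAL-Si cells on fibronectin were treated for 6 h with serial dilutions (30 μM to 0.1 nM). After fixation, GSPT1 was immunostained and imaged by high-content analysis, with DAPI/actin cell segmentation giving mean GSPT1 intensity per cell. DC50 came from nonlinear regression after normalization to controls.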

[2] = biological target: CRBN (Homo sapiens (Human), UniProt Q96SW2); experiment: HTRF binding of compounds to CRBN; details: read-out: HTRF Class (HTRF IC50, Cereblon binding)
[3] = biological target: Full length wild-type cereblon CRBN (Homo sapiens (Human), UniProt Q96SW2); experiment: Fluorescence polarization (FP) assay, cereblon binding
In short: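 Full-length wild-type CRBN (80.0 nM) preincubated 30 min RT with compound (300–0.937 or 3000–9.3 nM, 12 points) in 20 mM HEPES pH 8.0, 150 NaCl, 0.5 mM TCEP, 0.05% Tween 20. Probe added at 5 nM final; FP read after 12 h (ex 590/em 675 nm), normalized to DMSO for IC50.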

[4] = Table 4, read-out: IF Class (ability for GSPT1 degradation)
[5] = CAL-Si cells, compounds with code A, read-out: DC50 value code
[6] = CAL-Si cells, treated 6 hours, read-out: Code, activity for GSPT1 degradation (DC50)
[7] = wild-type CRBN 80.0 nM, probe 5 nM, FP measured after 12 hours, read-out: rFP IC50

Sequence of CRBN (Q96SW2 whole entry, species assumed): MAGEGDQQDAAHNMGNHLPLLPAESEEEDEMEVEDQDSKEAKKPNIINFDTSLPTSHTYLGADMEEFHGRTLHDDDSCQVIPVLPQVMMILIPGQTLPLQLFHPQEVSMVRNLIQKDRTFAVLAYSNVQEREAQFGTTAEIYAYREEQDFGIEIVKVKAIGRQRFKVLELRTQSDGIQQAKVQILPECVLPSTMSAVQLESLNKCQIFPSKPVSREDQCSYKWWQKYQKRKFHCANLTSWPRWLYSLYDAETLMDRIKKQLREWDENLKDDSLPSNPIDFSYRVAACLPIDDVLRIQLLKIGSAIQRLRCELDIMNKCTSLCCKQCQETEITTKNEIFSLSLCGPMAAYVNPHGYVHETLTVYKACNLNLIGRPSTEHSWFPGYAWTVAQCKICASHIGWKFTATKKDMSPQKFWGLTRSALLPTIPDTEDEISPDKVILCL
Sequence of Full length wild-type cereblon CRBN (Q96SW2 whole entry): as the sequence (Q96SW2 whole entry, species assumed) above
Sequence of GSPT1 (P15170 whole entry): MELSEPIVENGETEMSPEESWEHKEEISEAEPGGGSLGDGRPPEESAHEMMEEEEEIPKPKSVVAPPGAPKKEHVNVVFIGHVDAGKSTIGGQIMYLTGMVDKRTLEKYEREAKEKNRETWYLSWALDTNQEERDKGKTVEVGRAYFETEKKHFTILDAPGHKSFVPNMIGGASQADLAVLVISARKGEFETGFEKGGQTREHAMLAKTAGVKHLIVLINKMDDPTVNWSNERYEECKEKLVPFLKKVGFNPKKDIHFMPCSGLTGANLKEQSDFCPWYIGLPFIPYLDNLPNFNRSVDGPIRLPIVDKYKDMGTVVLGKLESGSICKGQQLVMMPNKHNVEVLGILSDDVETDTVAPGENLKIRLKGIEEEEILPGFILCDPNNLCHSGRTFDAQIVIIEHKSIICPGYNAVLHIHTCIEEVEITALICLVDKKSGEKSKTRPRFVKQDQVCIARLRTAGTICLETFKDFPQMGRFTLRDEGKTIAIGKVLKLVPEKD
Sequence of GSPT1 (Q96SW2 whole entry): as the sequence (Q96SW2 whole entry, species assumed) above
Sequence of GSPT1 (Q16531 whole entry partner): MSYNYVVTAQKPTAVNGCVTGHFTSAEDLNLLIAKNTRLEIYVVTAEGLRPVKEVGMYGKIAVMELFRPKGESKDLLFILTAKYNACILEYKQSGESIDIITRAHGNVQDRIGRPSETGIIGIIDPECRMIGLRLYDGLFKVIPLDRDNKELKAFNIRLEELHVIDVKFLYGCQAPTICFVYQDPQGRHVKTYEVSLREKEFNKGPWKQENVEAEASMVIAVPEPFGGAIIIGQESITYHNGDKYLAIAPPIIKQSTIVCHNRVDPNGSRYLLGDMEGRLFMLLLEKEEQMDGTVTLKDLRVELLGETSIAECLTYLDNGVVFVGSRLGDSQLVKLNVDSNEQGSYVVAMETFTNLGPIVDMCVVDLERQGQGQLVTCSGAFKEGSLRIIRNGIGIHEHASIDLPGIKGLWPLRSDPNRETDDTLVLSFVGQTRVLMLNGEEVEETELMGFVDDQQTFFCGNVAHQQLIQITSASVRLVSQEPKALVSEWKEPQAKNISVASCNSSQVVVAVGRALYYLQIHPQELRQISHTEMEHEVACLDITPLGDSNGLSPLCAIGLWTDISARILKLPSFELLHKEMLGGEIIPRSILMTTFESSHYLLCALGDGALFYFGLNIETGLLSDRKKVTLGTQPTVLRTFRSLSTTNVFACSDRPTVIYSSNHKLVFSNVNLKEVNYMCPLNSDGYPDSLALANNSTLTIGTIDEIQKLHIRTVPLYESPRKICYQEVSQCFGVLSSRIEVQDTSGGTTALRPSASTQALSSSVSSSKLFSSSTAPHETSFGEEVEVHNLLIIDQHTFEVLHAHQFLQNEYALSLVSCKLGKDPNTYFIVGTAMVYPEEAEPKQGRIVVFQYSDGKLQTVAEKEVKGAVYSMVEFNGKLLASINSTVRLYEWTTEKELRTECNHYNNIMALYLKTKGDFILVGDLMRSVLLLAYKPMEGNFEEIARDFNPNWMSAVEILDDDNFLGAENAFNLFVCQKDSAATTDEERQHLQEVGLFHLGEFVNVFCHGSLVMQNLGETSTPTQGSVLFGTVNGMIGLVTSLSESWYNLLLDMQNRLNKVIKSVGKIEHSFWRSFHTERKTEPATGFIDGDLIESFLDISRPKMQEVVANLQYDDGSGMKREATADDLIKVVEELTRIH

CC1(c2ccc(NC(=O)OCc3cc(F)c4c(c3)C(=O)N(C3CCC(=O)NC3=O)C4)cn2)CC1 (stereo not drawn) [Compound 75, (2-(2,6-dioxopiperidin-3-yl)-7-fluoro-3-oxoisoindolin-5-yl)methyl(6-(1-methylcyclopropyl)pyridin-3-yl)carbamate]
DC50 [1, 4]: < 30 nM | IC50 [2]: 100 to 1000 nM

Cc1ccc(NC(=O)OCc2ccc3c(c2F)C(=O)N(C2CCC(=O)NC2=O)C3)cc1Cl (stereo not drawn) [Compound 71, (2-(2,6-dioxopiperidin-3-yl)-4-fluoro-3-oxoisoindolin-5-yl)methyl(3-chloro-4-methylphenyl)carbamate]
DC50 [1, 5]: < 30 nM | DC50 [1, 6]: < 30 nM | IC50 [2]: 100 to 1000 nM | IC50 [3, 7]: > 1900 nM

Cc1ccc(NC(=O)OCc2ccc3c(c2Cl)C(=O)N(C2CCC(=O)NC2=O)C3)cc1Cl (stereo not drawn) [Compound 72, (4-chloro-2-(2,6-dioxopiperidin-3-yl)-3-oxoisoindolin-5-yl)methyl(3-chloro-4-methylphenyl) carbamate]
DC50 [1, 4]: > 300 nM | IC50 [2]: > 1000 nM

COc1cc(COC(=O)Nc2ccc(C3(C)CC3)cc2)cc2c1CN(C1CCC(=O)NC1=O)C2=O (stereo not drawn) [Compound 40, (2-(2,6-dioxopiperidin-3-yl)-7-methoxy-3-oxoisoindolin-5-yl)methyl (4-(1-methylcyclopropyl)phenyl)carbamate]
DC50 [1, 5]: < 30 nM | DC50 [1, 6]: < 30 nM | IC50 ([3]; cereblon binding, bound, read-out: IC50 value): < 600 nM | IC50 [3, 7]: ≤ 600 nM
